Laboratory results from ChEMBL document CHEMBL1201862, “PubChem BioAssay data set” (2004).
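Values below derive from 48-hour exposures of cells grown in 96-well plates, with endpoints linearly interpolated between the two concentrations bracketing the appropriate inhibition level. GI50: concentration for 50% inhibition of growth.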 Active and inactive are the calls of the source. No stated cut-off is given here; in the data, active = GI50 up to about 1.1 µM and inactive = higher.

Assays:
Assay in all cases: inhibition of tumour cell growth, NCI panel, 48 h
SF-539 = test system: SF-539
HOP-92 = test system: HOP-92
SF-295 = test system: SF-295
NCI-H226 = test system: NCI-H226
NCI-H23 = test system: NCI-H23
SNB-75 = test system: SNB-75
A549 = test system: A549
PC-3 = test system: PC-3
M14 = test system: M14
A498 = test system: A498
K562 = test system: K562
786-0 = test system: 786-0
SNB-19 = test system: SNB-19
NCI/ADR-RES = test system: NCI/ADR-RES
IGROV-1 = test system: IGROV-1
HOP-62 = test system: HOP-62
Hs-578T = test system: Hs-578T
CCRF-CEM = test system: CCRF-CEM
HCT-15 = test system: HCT-15
Malme-3M = test system: Malme-3M
MDA-MB-435 = test system: MDA-MB-435
SW-620 = test system: SW-620
HT-29 = test system: HT-29
MCF7 = test system: MCF7
UO-31 = test system: UO-31
MDA-N = test system: MDA-N
MDA-MB-231 = test system: MDA-MB-231
CAKI-1 = test system: CAKI-1
RPMI-8226 = test system: RPMI-8226
HCC 2998 = test system: HCC 2998
OVCAR-8 = test system: OVCAR-8
MOLT-4 = test system: MOLT-4
U-251 = test system: U-251
UACC-257 = test system: UACC-257
COLO 205 = test system: COLO 205
TK-10 = test system: TK-10
SF-268 = test system: SF-268
SN12C = test system: SN12C
HL-60 = test system: HL-60
NCI-H460 = test system: NCI-H460
LOX IMVI = test system: LOX IMVI
SK-MEL-28 = test system: SK-MEL-28
OVCAR-4 = test system: OVCAR-4
ACHN = test system: ACHN
OVCAR-5 = test system: OVCAR-5
KM12 = test system: KM12
HCT-116 = test system: HCT-116
DU-145 = test system: DU-145
SK-MEL-5 = test system: SK-MEL-5
RXF 393 = test system: RXF 393
SK-MEL-2 = test system: SK-MEL-2
UACC-62 = test system: UACC-62
SK-OV-3 = test system: SK-OV-3
T47D = test system: T47D
SR = test system: SR
NCI-H522 = test system: NCI-H522

CCN(CCCl)c1cc(CN(C)C)cc(NC(=O)c2cc(C(=O)Nc3cc(CN(C)C)cc(N(CC)CCCl)c3)n(C)n2)c1
GI50 (SF-539): 0.338 µM (active)
GI50 (HOP-92): 1.11 µM (active)
GI50 (SF-295): 0.78 µM (active)
GI50 (NCI-H226): 1.43 µM (inactive)
GI50 (NCI-H23): 0.284 µM (active)
GI50 (SNB-75): 0.271 µM (active)
GI50 (A549): 0.136 µM (active)
GI50 (PC-3): 0.164 µM (active)
GI50 (M14): 0.381 µM (active)
GI50 (A498): 2 µM (inactive)
GI50 (K562): 0.124 µM (active)
GI50 (786-0): < 0.01 µM (active)
GI50 (SNB-19): 0.0658 µM (active)
GI50 (NCI/ADR-RES): 10.3 µM (inactive)
GI50 (IGROV-1): 0.136 µM (active)
GI50 (HOP-62): 0.121 µM (active)
GI50 (Hs-578T): 0.197 µM (active)
GI50 (CCRF-CEM): < 0.01 µM (active)
GI50 (HCT-15): 2.31 µM
GI50 (Malme-3M): 1.49 µM (inactive)
GI50 (MDA-MB-435): 0.213 µM (active)
GI50 (SW-620): 0.0962 µM (active)
GI50 (HT-29): 0.136 µM (active)
GI50 (MCF7): < 0.01 µM (active)
GI50 (UO-31): 3.06 µM (inactive)
GI50 (MDA-N): 1.22 µM (inactive)
GI50 (MDA-MB-231): 1.53 µM (inactive)
GI50 (CAKI-1): 0.557 µM (active)
GI50 (RPMI-8226): 0.24 µM (active)
GI50 (HCC 2998): 0.755 µM (active)
GI50 (OVCAR-8): 0.143 µM (active)
GI50 (MOLT-4): < 0.01 µM (active)
GI50 (U-251): 0.0923 µM (active)
GI50 (UACC-257): 1.37 µM (inactive)
GI50 (COLO 205): 0.721 µM (active)
GI50 (TK-10): 2.69 µM (inactive)
GI50 (SF-268): 0.065 µM (active)
GI50 (SN12C): 0.3 µM (active)
GI50 (HL-60): 0.0115 µM (active)
GI50 (NCI-H460): < 0.01 µM (active)
GI50 (LOX IMVI): 0.0685 µM (active)
GI50 (SK-MEL-28): 1.48 µM (inactive)
GI50 (OVCAR-4): 0.485 µM (active)
GI50 (ACHN): 0.0828 µM (active)
GI50 (OVCAR-5): 2.32 µM (inactive)
GI50 (KM12): 0.236 µM (active)
GI50 (HCT-116): 0.227 µM (active)
GI50 (DU-145): 0.389 µM (active)
GI50 (SK-MEL-5): 1.09 µM (active)
GI50 (RXF 393): 0.449 µM (active)
GI50 (SK-MEL-2): 1.55 µM (inactive)
GI50 (UACC-62): 0.219 µM (active)
GI50 (SK-OV-3): 0.331 µM (active)
GI50 (T47D): 0.508 µM (active)
GI50 (SR): 0.0119 µM (active)
GI50 (NCI-H522): 0.115 µM (active)
